As a reminder, the EC50 is the concentration at which the effect is half-maximal.

This note sets out measurements from paper PMC12511557, “WEE1 inhibitors synergise with mRNA translation defects via activation of the kinase GCN2” (Nature Communications, 2025).

The target in the assay is T1, GCN2 (Homo sapiens, UniProt Q9P2K8).
T1 construct: gene EIF2AK4; recombinant human GCN2, N-terminal twin StrepII tag, expressed in Sf9 cells
In words: ADP-Glo kinase assay with purified GCN2 (biphasic: activation EC50 […], inhibition IC50 […]); supported by thermal unfolding (-2.[…] °C shift) and in vitro autophosphorylation. In kind it is biochemical. For orientation: In ADP-Glo the light output rises with the ADP produced.

T1 sequence (Q9P2K8 whole entry): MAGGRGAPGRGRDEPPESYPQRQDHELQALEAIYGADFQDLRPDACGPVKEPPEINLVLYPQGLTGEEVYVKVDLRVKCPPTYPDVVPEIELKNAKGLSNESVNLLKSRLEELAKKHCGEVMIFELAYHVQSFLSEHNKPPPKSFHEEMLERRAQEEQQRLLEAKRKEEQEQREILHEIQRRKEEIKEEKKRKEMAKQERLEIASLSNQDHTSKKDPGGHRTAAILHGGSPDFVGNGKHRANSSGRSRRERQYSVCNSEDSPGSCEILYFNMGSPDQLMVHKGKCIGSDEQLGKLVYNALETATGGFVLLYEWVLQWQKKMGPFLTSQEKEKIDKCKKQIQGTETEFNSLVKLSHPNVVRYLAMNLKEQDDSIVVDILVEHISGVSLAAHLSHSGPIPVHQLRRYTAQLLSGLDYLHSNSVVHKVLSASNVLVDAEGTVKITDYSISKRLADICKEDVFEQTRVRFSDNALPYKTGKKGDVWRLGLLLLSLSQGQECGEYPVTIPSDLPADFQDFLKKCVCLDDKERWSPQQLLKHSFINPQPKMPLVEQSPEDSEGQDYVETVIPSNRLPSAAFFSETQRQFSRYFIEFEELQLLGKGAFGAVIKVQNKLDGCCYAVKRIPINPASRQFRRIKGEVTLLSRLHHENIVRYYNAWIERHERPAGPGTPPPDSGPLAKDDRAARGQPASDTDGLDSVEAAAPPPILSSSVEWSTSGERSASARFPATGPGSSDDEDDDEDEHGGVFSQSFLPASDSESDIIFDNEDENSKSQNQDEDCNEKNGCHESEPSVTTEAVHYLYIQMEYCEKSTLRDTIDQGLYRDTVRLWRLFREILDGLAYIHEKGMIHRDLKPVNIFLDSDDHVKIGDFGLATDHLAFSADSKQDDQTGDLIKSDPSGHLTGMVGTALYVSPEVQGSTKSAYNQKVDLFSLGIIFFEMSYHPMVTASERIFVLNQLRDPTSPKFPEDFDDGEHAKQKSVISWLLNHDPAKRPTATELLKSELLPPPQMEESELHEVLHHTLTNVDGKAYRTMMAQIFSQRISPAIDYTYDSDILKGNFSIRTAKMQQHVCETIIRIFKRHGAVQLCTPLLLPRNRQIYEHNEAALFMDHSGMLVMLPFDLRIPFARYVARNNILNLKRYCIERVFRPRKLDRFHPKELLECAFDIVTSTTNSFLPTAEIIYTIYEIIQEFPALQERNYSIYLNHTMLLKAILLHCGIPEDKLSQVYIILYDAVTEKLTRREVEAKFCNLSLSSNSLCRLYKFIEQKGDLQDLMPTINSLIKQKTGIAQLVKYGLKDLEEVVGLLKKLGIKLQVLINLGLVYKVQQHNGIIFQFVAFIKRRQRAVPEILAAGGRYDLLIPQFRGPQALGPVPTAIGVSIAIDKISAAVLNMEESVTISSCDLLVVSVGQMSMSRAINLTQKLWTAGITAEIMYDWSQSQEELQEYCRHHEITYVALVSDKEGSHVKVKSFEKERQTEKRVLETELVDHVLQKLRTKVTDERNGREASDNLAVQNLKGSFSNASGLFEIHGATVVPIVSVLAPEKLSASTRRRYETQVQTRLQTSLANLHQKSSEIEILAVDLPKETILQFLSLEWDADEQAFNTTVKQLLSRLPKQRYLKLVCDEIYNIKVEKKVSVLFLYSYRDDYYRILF

As for `C=CCn1c(=O)c2cnc(Nc3ccc(N4CCN(C)CC4)cc3)nc2n1-c1cccc(C(C)(C)O)n1` [AZD1775], the EC50 was 0.016 µM.
